Measured values published in ChEMBL document CHEMBL1201862, “PubChem BioAssay data set” (2004).
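1) Cells in 96-well plates. 2) Compound, 48 h, 5 concentrations. 3) Linear interpolation between surrounding doses. 4) Unreached endpoint = highest concentration. GI50: concentration for 50% inhibition of growth.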 Active and inactive are the calls of the source. Cut-off read from the data, not from the text of the source: active = GI50 up to about 1.1 µM and inactive = higher.

Tests used:
Test in all cases: DTP human tumour cell line panel, 48 h
COLO 205 = tested on: COLO 205
Hs-578T = tested on: Hs-578T
IGROV-1 = tested on: IGROV-1
KM12 = tested on: KM12
DU-145 = tested on: DU-145
HT-29 = tested on: HT-29
NCI-H23 = tested on: NCI-H23
A498 = tested on: A498
NCI-H226 = tested on: NCI-H226
UO-31 = tested on: UO-31
HOP-62 = tested on: HOP-62
OVCAR-8 = tested on: OVCAR-8
SF-268 = tested on: SF-268
OVCAR-5 = tested on: OVCAR-5
NCI/ADR-RES = tested on: NCI/ADR-RES
BT-549 = tested on: BT-549
SF-539 = tested on: SF-539
SK-MEL-28 = tested on: SK-MEL-28
MDA-N = tested on: MDA-N
RPMI-8226 = tested on: RPMI-8226
OVCAR-4 = tested on: OVCAR-4
ACHN = tested on: ACHN
SNB-19 = tested on: SNB-19
SW-620 = tested on: SW-620
HCC 2998 = tested on: HCC 2998
SR = tested on: SR
CCRF-CEM = tested on: CCRF-CEM
K562 = tested on: K562
MCF7 = tested on: MCF7
HCT-15 = tested on: HCT-15
SF-295 = tested on: SF-295
HOP-92 = tested on: HOP-92
PC-3 = tested on: PC-3
SNB-75 = tested on: SNB-75
MDA-MB-435 = tested on: MDA-MB-435
M14 = tested on: M14
OVCAR-3 = tested on: OVCAR-3
TK-10 = tested on: TK-10
A549 = tested on: A549
SK-MEL-2 = tested on: SK-MEL-2
NCI-H460 = tested on: NCI-H460
Malme-3M = tested on: Malme-3M
SN12C = tested on: SN12C
MDA-MB-231 = tested on: MDA-MB-231
MOLT-4 = tested on: MOLT-4
LOX IMVI = tested on: LOX IMVI
HCT-116 = tested on: HCT-116
786-0 = tested on: 786-0
U-251 = tested on: U-251
CAKI-1 = tested on: CAKI-1
UACC-257 = tested on: UACC-257
SK-MEL-5 = tested on: SK-MEL-5
EKVX = tested on: EKVX
HL-60 = tested on: HL-60
RXF 393 = tested on: RXF 393
T47D = tested on: T47D
UACC-62 = tested on: UACC-62
SK-OV-3 = tested on: SK-OV-3
NCI-H522 = tested on: NCI-H522

Structure (SMILES): CCOC(=O)c1[nH]c2cccc3c2c1CC[C@H](NC(=O)C(F)(F)F)C3=O
- GI50 (COLO 205): > 100 µM (inactive)
- GI50 (Hs-578T): 19.5 µM (inactive)
- GI50 (IGROV-1): 75.5 µM (inactive)
- GI50 (KM12): 61.8 µM (inactive)
- GI50 (DU-145): > 100 µM (inactive)
- GI50 (HT-29): > 100 µM (inactive)
- GI50 (NCI-H23): 70.6 µM (inactive)
- GI50 (A498): 43.7 µM (inactive)
- GI50 (NCI-H226): > 100 µM (inactive)
- GI50 (UO-31): > 100 µM (inactive)
- GI50 (HOP-62): 24 µM (inactive)
- GI50 (OVCAR-8): 19.7 µM (inactive)
- GI50 (SF-268): 37.1 µM (inactive)
- GI50 (OVCAR-5): > 100 µM (inactive)
- GI50 (NCI/ADR-RES): 54 µM (inactive)
- GI50 (BT-549): 40.4 µM (inactive)
- GI50 (SF-539): 38.1 µM (inactive)
- GI50 (SK-MEL-28): < 0.01 µM (active)
- GI50 (MDA-N): 34.5 µM (inactive)
- GI50 (RPMI-8226): > 100 µM (inactive)
- GI50 (OVCAR-4): 24.7 µM (inactive)
- GI50 (ACHN): < 0.01 µM (active)
- GI50 (SNB-19): 15.8 µM (inactive)
- GI50 (SW-620): 76.7 µM (inactive)
- GI50 (HCC 2998): > 100 µM (inactive)
- GI50 (SR): > 100 µM (inactive)
- GI50 (CCRF-CEM): > 100 µM (inactive)
- GI50 (K562): 45.8 µM (inactive)
- GI50 (MCF7): 73.1 µM (inactive)
- GI50 (HCT-15): > 100 µM
- GI50 (SF-295): 22.3 µM (inactive)
- GI50 (HOP-92): 22.6 µM (inactive)
- GI50 (PC-3): 64.6 µM (inactive)
- GI50 (SNB-75): 24.3 µM (inactive)
- GI50 (MDA-MB-435): 45.1 µM (inactive)
- GI50 (M14): 95.5 µM (inactive)
- GI50 (OVCAR-3): > 100 µM (inactive)
- GI50 (TK-10): 46 µM (inactive)
- GI50 (A549): 28.8 µM (inactive)
- GI50 (SK-MEL-2): 20 µM (inactive)
- GI50 (NCI-H460): 53.6 µM (inactive)
- GI50 (Malme-3M): > 100 µM (inactive)
- GI50 (SN12C): 40.3 µM (inactive)
- GI50 (MDA-MB-231): > 100 µM (inactive)
- GI50 (MOLT-4): > 100 µM (inactive)
- GI50 (LOX IMVI): 78 µM (inactive)
- GI50 (HCT-116): 35.6 µM (inactive)
- GI50 (786-0): 31.2 µM (inactive)
- GI50 (U-251): 22.5 µM (inactive)
- GI50 (CAKI-1): 13.9 µM (inactive)
- GI50 (UACC-257): 76.6 µM (inactive)
- GI50 (SK-MEL-5): 22.5 µM (inactive)
- GI50 (EKVX): < 0.01 µM (active)
- GI50 (HL-60): > 100 µM (inactive)

Structure (SMILES): COC(=O)CSc1nc2[nH]c(SC)c(C(N)=O)c2c(=O)n1-c1ccccc1
- GI50 (COLO 205): > 10 µM (inactive)
- GI50 (IGROV-1): > 10 µM (inactive)
- GI50 (KM12): > 10 µM (inactive)
- GI50 (DU-145): > 10 µM (inactive)
- GI50 (HT-29): > 10 µM (inactive)
- GI50 (NCI-H23): > 10 µM (inactive)
- GI50 (RXF 393): > 10 µM (inactive)
- GI50 (HOP-62): > 10 µM (inactive)
- GI50 (OVCAR-8): > 10 µM (inactive)
- GI50 (SF-268): > 10 µM (inactive)
- GI50 (SK-MEL-28): > 10 µM (inactive)
- GI50 (MDA-N): > 10 µM (inactive)
- GI50 (RPMI-8226): > 10 µM (inactive)
- GI50 (OVCAR-4): > 10 µM (inactive)
- GI50 (SW-620): > 10 µM (inactive)
- GI50 (T47D): > 10 µM (inactive)
- GI50 (UACC-62): > 10 µM (inactive)
- GI50 (HCC 2998): > 10 µM (inactive)
- GI50 (SR): > 10 µM (inactive)
- GI50 (SK-OV-3): > 10 µM (inactive)
- GI50 (CCRF-CEM): > 10 µM (inactive)
- GI50 (K562): > 10 µM (inactive)
- GI50 (MCF7): > 10 µM (inactive)
- GI50 (HCT-15): > 10 µM
- GI50 (SF-295): > 10 µM (inactive)
- GI50 (HOP-92): > 10 µM (inactive)
- GI50 (PC-3): > 10 µM (inactive)
- GI50 (SNB-75): > 10 µM (inactive)
- GI50 (MDA-MB-435): > 10 µM (inactive)
- GI50 (M14): > 10 µM (inactive)
- GI50 (TK-10): > 10 µM (inactive)
- GI50 (A549): > 10 µM (inactive)
- GI50 (Malme-3M): > 10 µM (inactive)
- GI50 (SN12C): > 10 µM (inactive)
- GI50 (MDA-MB-231): > 10 µM (inactive)
- GI50 (MOLT-4): > 10 µM (inactive)
- GI50 (LOX IMVI): > 10 µM (inactive)
- GI50 (786-0): > 10 µM (inactive)
- GI50 (CAKI-1): > 10 µM (inactive)
- GI50 (UACC-257): > 10 µM (inactive)
- GI50 (SK-MEL-5): > 10 µM (inactive)
- GI50 (EKVX): > 10 µM (inactive)
- GI50 (HL-60): > 10 µM (inactive)

Structure (SMILES): N#Cc1nc(-c2cccc(-c3nc(C#N)c(N)o3)n2)oc1N
- GI50 (COLO 205): > 100 µM (inactive)
- GI50 (Hs-578T): > 100 µM (inactive)
- GI50 (IGROV-1): > 100 µM (inactive)
- GI50 (KM12): > 100 µM (inactive)
- GI50 (DU-145): > 100 µM (inactive)
- GI50 (HT-29): > 100 µM (inactive)
- GI50 (NCI-H23): > 100 µM (inactive)
- GI50 (A498): > 100 µM (inactive)
- GI50 (NCI-H226): > 100 µM (inactive)
- GI50 (UO-31): > 100 µM (inactive)
- GI50 (HOP-62): > 100 µM (inactive)
- GI50 (OVCAR-8): > 100 µM (inactive)
- GI50 (SF-268): > 100 µM (inactive)
- GI50 (OVCAR-5): > 100 µM (inactive)
- GI50 (NCI-H522): > 100 µM (inactive)
- GI50 (NCI/ADR-RES): > 100 µM (inactive)
- GI50 (SF-539): > 100 µM (inactive)
- GI50 (SK-MEL-28): > 100 µM (inactive)
- GI50 (MDA-N): > 100 µM (inactive)
- GI50 (RPMI-8226): > 100 µM (inactive)
- GI50 (OVCAR-4): > 100 µM (inactive)
- GI50 (ACHN): > 100 µM (inactive)
- GI50 (SNB-19): > 100 µM (inactive)
- GI50 (SW-620): > 100 µM (inactive)
- GI50 (T47D): > 100 µM (inactive)
- GI50 (UACC-62): > 100 µM (inactive)
- GI50 (HCC 2998): > 100 µM (inactive)
- GI50 (SR): > 100 µM (inactive)
- GI50 (SK-OV-3): > 100 µM (inactive)
- GI50 (CCRF-CEM): 21.2 µM (inactive)
- GI50 (K562): > 100 µM (inactive)
- GI50 (MCF7): > 100 µM (inactive)
- GI50 (HCT-15): > 100 µM
- GI50 (SF-295): > 100 µM (inactive)
- GI50 (HOP-92): > 100 µM (inactive)
- GI50 (PC-3): > 100 µM (inactive)
- GI50 (SNB-75): > 100 µM (inactive)
- GI50 (MDA-MB-435): > 100 µM (inactive)
- GI50 (M14): > 100 µM (inactive)
- GI50 (OVCAR-3): > 100 µM (inactive)
- GI50 (TK-10): > 100 µM (inactive)
- GI50 (A549): > 100 µM (inactive)
- GI50 (SK-MEL-2): > 100 µM (inactive)
- GI50 (NCI-H460): > 100 µM (inactive)
- GI50 (Malme-3M): > 100 µM (inactive)
- GI50 (SN12C): > 100 µM (inactive)
- GI50 (MDA-MB-231): > 100 µM (inactive)
- GI50 (MOLT-4): > 100 µM (inactive)
- GI50 (LOX IMVI): > 100 µM (inactive)
- GI50 (HCT-116): > 100 µM (inactive)
- GI50 (786-0): > 100 µM (inactive)
- GI50 (U-251): > 100 µM (inactive)
- GI50 (CAKI-1): > 100 µM (inactive)
- GI50 (UACC-257): > 100 µM (inactive)
- GI50 (SK-MEL-5): > 100 µM (inactive)
- GI50 (EKVX): > 100 µM (inactive)
- GI50 (HL-60): 64.7 µM (inactive)
